Test results published in patent US20110190503A1, “Thiazolopyridin-2-yloxy-phenyl and thiazolopyrazin-2-yloxy-phenyl amines as modulators of leukotriene A4 hydrolase” (Janssen Pharmaceutical NV, priority 2008, published 2011).
Read-outs that look alike come from different tables or passages of the source.

How the values were obtained:
[1] = system: LTB4 production by calcium ionophore-stimulated murine blood; experiment: LTB4 production by calcium ionophore-stimulated murine blood for LTA4H inhibitor activity; assay type: cell-based, CD-1 mice; conditions: Mus musculus
Summary of the method: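 Heparinized CD-1 mouse blood pre-incubated with compound 15 min at 37° C, then stimulated with calcium ionophore A23187 (7 μg/mL final) for 30 min. LTB4 in supernatant measured by enzyme immunoassay; values are single or averaged determinations, with SD for n≥3.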

[2] = system: neutrophil influx; experiment: Murine arachidonic acid-induced inflammation model: neutrophil influx in ear, myeloperoxidase activity (% Inh. MPO); assay type: in vivo; conditions: Mus musculus, female Balb/c mice, 30 mg/kg oral gavage, ear biopsy 3 h after topical arachidonic acid, number of determinations in parentheses
Summary of the method: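 Female Balb/c mice were dosed orally at 30 mg/kg (20% cyclodextran/H2O). Ear biopsies at 3 h; MPO activity by TMB, A405, acetone ear subtracted; inhibition versus vehicle-dosed mice.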

[3] = murine blood diluted 1 in 15, calcium ionophore A23187, LTB4 by immunoassay, read-out: IC50

IC50 [1, 3] [µM]	Compound	inhibition in vivo at 30 mg/kg [2] [%]	IC50 [1] [µM]
0.018 ± 0.013	CC(=O)N1C[C@@H]2C[C@H]1CN2CCOc1ccc(Oc2nc3ncccc3s2)cc1 [Example 14, 2-(4-{2-[(1S,4S)-5-Acetyl-2,5-diazabicyclo[2.2.1]hept-2-yl]ethoxy}phenoxy)[1,3]thiazolo[4,5-b]pyridine]	72.3	–
0.031	NC(=O)C1CCN(CCOc2ccc(Oc3nc4ncccc4s3)cc2)CC1 [Example 31, 1-{2-[4-([1,3]Thiazolo[4,5-b]pyridin-2-yloxy)phenoxy]ethyl}piperidine-4-carboxamide]	70.5	–
0.022	O=C1CCCN1C1CCN(CCOc2ccc(Oc3nc4ncccc4s3)cc2)CC1 [Example 32, 1-(1-{2-[4-([1,3]Thiazolo[4,5-b]pyridin-2-yloxy)phenoxy]ethyl}piperidin-4-yl)pyrrolidin-2-one]	76	–
0.17	NC(=O)N1C[C@@H]2C[C@H]1CN2CCc1ccc(Oc2nc3ncccc3s2)cc1 [Example 45, (1S,4S)-5-{2-[4-([1,3]Thiazolo[4,5-b]pyridin-2-yloxy)phenyl]ethyl}-2,5-diazabicyclo[2.2.1]heptane-2-carboxamide]	71.1	–
0.05	CC(=O)N1CC2CN(CCc3ccc(Oc4nc5ncccc5s4)cc3)CC2C1 (stereo not drawn) [Example 73, 2-{4-[2-(5-Acetylhexahydropyrrolo[3,4-c]pyrrol-2(1H)-yl)ethyl]phenoxy}[1,3]thiazolo[4,5-b]pyridine]	79.4	–
0.044	CC(=O)N1C[C@@H]2C[C@H]1CN2CCc1ccc(Oc2nc3ncccc3s2)cc1 [Example 75, 2-(4-{2-[(1S,4S)-5-Acetyl-2,5-diazabicyclo[2.2.1]hept-2-yl]ethyl}phenoxy)[1,3]thiazolo[4,5-b]pyridine]	68.1	–
0.055	O=C1CCCN1C1CCN(Cc2ccc(Oc3nc4ncccc4s3)cc2)CC1 [Example 83, 1-{1-[4-([1,3]Thiazolo[4,5-b]pyridin-2-yloxy)benzyl]piperidin-4-yl}pyrrolidin-2-one]	88.2	–
0.079	NC(=O)N1C[C@@H]2C[C@H]1CN2Cc1ccc(Oc2nc3ncccc3s2)cc1 [Example 106, (1S,4S)-5-[4-([1,3]Thiazolo[4,5-b]pyridin-2-yloxy)benzyl]-2,5-diazabicyclo[2.2.1]heptane-2-carboxamide]	95.2	–
–	CC(=O)N[C@@H]1C[C@H]2CC[C@@H](C1)N2Cc1ccc(Oc2nc3ncccc3s2)cc1 [Example 109, meso-N-{(3-exo)-8-[4-([1,3]Thiazolo[4,5-b]pyridin-2-yloxy)benzyl]-8-azabicyclo[3.2.1]oct-3-yl}acetamide]	71.5	0.06
–	CC(=O)N[C@H]1C[C@H]2CC[C@@H](C1)N2Cc1ccc(Oc2nc3ncccc3s2)cc1 [Example 116, meso-N-{(3-endo)-8-[4-([1,3]Thiazolo[4,5-b]pyridin-2-yloxy)benzyl]-8-azabicyclo[3.2.1]oct-3-yl}acetamide]	70	0.022 ± 0.017
0.12 ± 0.042	CC(=O)N1C[C@@H]2C[C@H]1CN2Cc1ccc(Oc2nc3ncc(C)cc3s2)cc1 [Example 121, 2-(4-{[(1S,4S)-5-Acetyl-2,5-diazabicyclo[2.2.1]hept-2-yl]methyl}phenoxy)-6-methyl[1,3]thiazolo[4,5-b]pyridine]	83	–
0.023	CC(=O)N1C[C@H]2C[C@@H]1CN2Cc1ccc(Oc2nc3ncccc3s2)cc1 [Example 265, 2-(4-{[(1R,4R)-5-Acetyl-2,5-diazabicyclo[2.2.1]hept-2-yl]methyl}phenoxy)[1,3]thiazolo[4,5-b]pyridine]	90.8	–
0.14	NC(=O)N1C[C@H]2C[C@@H]1CN2Cc1ccc(Oc2nc3ncccc3s2)cc1 [Example 266, (1R,4R)-5-[4-([1,3]Thiazolo[4,5-b]pyridin-2-yloxy)benzyl]-2,5-diazabicyclo[2.2.1]heptane-2-carboxamide]	85.8	–
0.11	CC(=O)N1C[C@H]2C[C@@H]1CN2CCOc1ccc(Oc2nc3ncccc3s2)cc1 [Example 267, 2-(4-{2-[(1R,4R)-5-Acetyl-2,5-diazabicyclo[2.2.1]hept-2-yl]ethoxy}phenoxy)[1,3]thiazolo[4,5-b]pyridine]	90.6	–

Compound	IC50 [1, 3] [µM]	inhibition in vivo at 30 mg/kg [2] [%]	IC50 [1] [µM]
CC(=O)N1C[C@H]2CC[C@@H](C1)N2CCc1ccc(Oc2nc3ncccc3s2)cc1 [Example 55, meso-2-(4-{2-[3-Acetyl-3,8-diazabicyclo[3.2.1]oct-8-yl]ethyl}phenoxy)[1,3]thiazolo[4,5-b]pyridine]	0.055	73.5	–
